Laboratory results: US12065471B2, “B*44 restricted peptides for use in immunotherapy against cancers and related methods” (Immatics Biotechnologies GmbH, priority 2018, dated 2024)

Tests used:
CD8+ T cells = experiment: In vitro immunogenicity: T-cell priming with aAPCs loaded with peptide/MHC and anti-CD28, pMHC multimer readout; type: cell-based, human; conditions: Table 10b, pMHC multimer readout after T-cell priming
Method: After three cycles of stimulation, the detection of peptide-reactive cells was performed by 2D multimer staining with B*44/SEQ ID NO: 469 (FIG. 3A), B*44/SEQ ID NO: 512 (FIG. 3B), B*44/SEQ ID NO: 9 (FIG. 3C), B*44/SEQ ID NO: 11 (D), B*44/SEQ ID NO: 17 (E), B*44/SEQ ID NO: 35 (F) or B*44/SEQ ID NO: 41 (FIG. 3G). Right panels (FIGS. 3A through 3G) show control staining of cells stimulated with irrelevant B*44/peptide complexes. Viable singlet cells were gated for CD8+ lymphocytes. Boolean gates helped excluding false-positive events detected with multimers specific for different peptides.
In order to obtain information regarding the immunogenicity of the TUMAPs of the present invention, the inventors performed investigations using an in vitro T-cell priming assay based on repeated stimulations of CD8+ T cells with artificial antigen presenting cells (aAPCs) loaded with peptide/MHC complexes and anti-CD28 antibody.
In order to perform in vitro stimulations by artificial antigen presenting cells loaded with peptide-MHC complex (pMHC) and anti-CD28 antibody, the inventors first isolated CD8+ T cells from fresh HLA-A*02 leukapheresis products via positive selection using CD8 microbeads (Miltenyi Biotec, Bergisch-Gladbach, Germany) of healthy donors obtained from the University clinics Mannheim, Germany, after informed consent.
PBMCs and isolated CD8+ lymphocytes were incubated in T-cell medium (TCM) until use consisting of RPMI-Glutamax (Invitrogen, Karlsruhe, Germany) supplemented with 10% heat inactivated human AB serum (PAN-Biotech, Aidenbach, Germany), 100 U/ml Penicillin/100 μg/ml Streptomycin (Cambrex, Cologne, Germany), 1 mM sodium pyruvate (CC Pro, Oberdorda, Germany), 20 μg/ml Gentamycin (Cambrex). 2.5 ng/ml IL-7 (PromoCell, Heidelberg, Germany) and 10 U/ml IL-2 (Novartis Pharma, Nümberg, Germany) were also added to the TCM at this step.
Generation of pMHC/anti-CD28 coated beads, T-cell stimulations and readout was performed in a highly defined in vitro system using four different pMHC molecules per stimulation condition and 8 different pMHC molecules per readout condition.
The purified co-stimulatory mouse IgG2a anti human CD28 Ab 9.3 (Jung et al., 1987) was chemically biotinylated using Sulfo-N-hydroxysuccinimidobiotin as recommended by the manufacturer (Perbio, Bonn, Germany). Beads used were 5.6 μm diameter streptavidin coated polystyrene particles (Bangs Laboratories, Illinois, USA).
800.000 beads/200 μl were coated in 96-well plates in the presence of 4×12.5 ng different biotin-pMHC, washed and 600 ng biotin anti-CD28 were added subsequently in a volume of 200 μl. Stimulations were initiated in 96-well plates by co-incubating 1×10^6 CD8+ T cells with 2×10^5 washed coated beads in 200 μl TCM supplemented with 5 ng/ml IL-12 (PromoCell) for 3 days at 37° C. Half of the medium was then exchanged by fresh TCM supplemented with 80 U/ml IL-2 and incubating was continued for 4 days at 37° C. This stimulation cycle was performed for a total of three times. For the pMHC multimer readout using 8 different pMHC molecules per condition, a two-dimensional combinatorial coding approach was used as previously described (Andersen et al., 2012) with minor modifications encompassing coupling to 5 different fluorochromes. Finally, multimeric analyses were performed by staining the cells with Live/dead near IR dye (Invitrogen, Karlsruhe, Germany), CD8-FITC antibody clone SK1 (BD, Heidelberg, Germany) and fluorescent pMHC multimers. For analysis, a BD LSRII SORP cytometer equipped with appropriate lasers and filters was used. Peptide specific cells were calculated as percentage of total CD8+ cells. Evaluation of multimeric analysis was done using the FlowJo software (Tree Star, Oregon, USA). In vitro priming of specific multimer+CD8+ lymphocytes was detected by comparing to negative control stimulations.

HLA-B*44:05 = HLA-B*44:05 (Homo sapiens, UniProt P01889, A223V/A65T/A93T/A95T/D201E/D98Y/E176V/E187L/E204Q/E69K/G107R/H137Y/K202T/L105A/L119I/N104T/N87E/Q56L/Q94N/R106L/R155S/R180D/S101N/S121R/S35A/S48T/T118I/V36M/W191S/Y91S); experiment: MHC binding assay (UV-ligand exchange, β2m ELISA, peptide exchange yield); conditions: binding to HLA-B*44:05
Method in brief: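 Peptide–HLA complexes formed by UV-ligand exchange of a UV-cleavable peptide for the test peptide. Exchange yield measured by β2m ELISA: complexes diluted 100-fold and captured on streptavidin, detected with HRP anti-β2m and TMB, read at 450 nm. Quantified against refolded HLA-A*02:01/MLA-001 monomer standards, 15-500 ng/ml.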

Peptide exchange (MHC class I binding score, peptide exchange yield) (HLA-B*44:05) | Substance | Wells positive [%] (CD8+ T cells)
++++ (>75% = ++++) | 73 (GEGTLRLSW; listed as Homo sapiens) [compound 73] | ++ (20%-49% = ++)
+++ (>50 = +++) | 42 (SEENTGKTYF; listed as Homo sapiens) [compound 42] | ++ (20%-49% = ++)
+++ (>50 = +++) | 61 (AEYSVHKI; listed as Homo sapiens) [compound 61] | + (<20% = +)
++++ (>75% = ++++) | 62 (AEYSVHKITSTF; listed as Homo sapiens) [compound 62] | + (<20% = +)
+++ (>50 = +++) | 422 (EEAQWVRKYF; listed as Homo sapiens) [compound 422] | ++++ (>=70% = ++++)
++ (>20% = ++) | 49 (SEYVHSSF; listed as Homo sapiens) [compound 49] | + (<20% = +)
+++ (>50 = +++) | 45 (EEINELNRMI; listed as Homo sapiens) [compound 45] | +++ (50%-69% = +++)
+++ (>50 = +++) | 44 (SEFGAPRW; listed as Homo sapiens) [compound 44] | ++++ (>=70% = ++++)
++ (>20% = ++) | 51 (VEMTGKHQL; listed as Homo sapiens) [compound 51] | ++ (20%-49% = ++)
++++ (>75% = ++++) | 68 (NEIDIHSIYF; listed as Homo sapiens) [compound 68] | ++ (20%-49% = ++)
+++ (>50 = +++) | 420 (MEVDPIGHVY; listed as Homo sapiens) [compound 420] | + (<20% = +)
+++ (>50 = +++) | 72 (AEVGDIIKVHF; listed as Homo sapiens) [compound 72] | ++ (20%-49% = ++)
+++ (>50 = +++) | 421 (TEDYSKQAL; listed as Homo sapiens) [compound 421] | + (<20% = +)
+++ (>50 = +++) | 79 (TEAQRLDCW; listed as Homo sapiens) [compound 79] | + (<20% = +)
++ (>20% = ++) | 71 (AEVGDIIKV; listed as Homo sapiens) [compound 71] | ++ (20%-49% = ++)

More lines, now with the values behind:

Substance | Peptide exchange (MHC class I binding score, peptide exchange yield) (HLA-B*44:05) | Wells positive [%] (CD8+ T cells)
29 (TENPKKFKI; listed as Homo sapiens) [compound 29] | +++ (>50 = +++) | ++++ (>=70% = ++++)
28 (QEFPAHSL; listed as Homo sapiens) [compound 28] | +++ (>50 = +++) | + (<20% = +)
6 (AELVGPVIPQDW; listed as Homo sapiens) [compound 6] | +++ (>50 = +++) | ++ (20%-49% = ++)
7 (SESDLVNFI; listed as Homo sapiens) [compound 7] | +++ (>50 = +++) | + (<20% = +)
33 (IEYENQKRL; listed as Homo sapiens) [compound 33] | ++ (>20% = ++) | ++ (20%-49% = ++)
25 (SEKEPGQQY; listed as Homo sapiens) [compound 25] | ++ (>20% = ++) | ++ (20%-49% = ++)
40 (REVDPDDSYVF; listed as Homo sapiens) [compound 40] | +++ (>50 = +++) | + (<20% = +)
41 (EENTGKTYF; listed as Homo sapiens) [compound 41] | +++ (>50 = +++) | ++ (20%-49% = ++)
12 (KEVDPTGHSF; listed as Homo sapiens) [compound 12] | +++ (>50 = +++) | + (<20% = +)
16 (NESDRLVYF; listed as Homo sapiens) [compound 16] | +++ (>50 = +++) | ++ (20%-49% = ++)
19 (MEHSDENIQFW; listed as Homo sapiens) [compound 19] | ++ (>20% = ++) | ++ (20%-49% = ++)
18 (QEAPRPASSL; listed as Homo sapiens) [compound 18] | +++ (>50 = +++) | + (<20% = +)
13 (VEAQDRETW; listed as Homo sapiens) [compound 13] | ++ (>20% = ++) | ++ (20%-49% = ++)
20 (LEALLSDLF; listed as Homo sapiens) [compound 20] | +++ (>50 = +++) | ++ (20%-49% = ++)
31 (MESAKETRY; listed as Homo sapiens) [compound 31] | +++ (>50 = +++) | + (<20% = +)
36 (LEQASRIWSW; listed as Homo sapiens) [compound 36] | ++++ (>75% = ++++) | ++++ (>=70% = ++++)
30 (EEFCFSVRF; listed as Homo sapiens) [compound 30] | +++ (>50 = +++) | + (<20% = +)
32 (REYEYDLKW; listed as Homo sapiens) [compound 32] | ++++ (>75% = ++++) | + (<20% = +)
37 (IEQGRVVLW; listed as Homo sapiens) [compound 37] | ++++ (>75% = ++++) | ++++ (>=70% = ++++)
4 (AEALGAAKKL; listed as Homo sapiens) [compound 4] | ++ (>20% = ++) | + (<20% = +)
